Source: patent US7371720B2, “Cationic peptides of the phylloseptin family isolated from the skin secretion of Phyllomedusa hypochondrialis” (Empressa Brasileira de Pesquisa Agropecuaria - Embrapa, priority 2001, dated 2008)
Peptide text beside a SMILES is read from it.

Columns and labels:
Format in all cases: cell-based
[1] = system: Enterococcus faecalis ATTC 29212; conditions: 20 h, 37° C., TSB, 100% growth inhibition
Description: (§1) The microorganisms Escherichia coli ATTC 25922, Pseudomonas aeroginosa ATTC 27853, Staphylococcus aureus ATTC 25923 and Enterococcus faecalis ATTC 29212 and a Brazilian strain of P. aeroginosa were used for the anti-microbial assay
(§2) The microorganisms were cultured in stationary culture at 37° C. Bacteria were grown in Tryptic Soy Broth (TSB). The bioassays were performed by liquid growth inhibition assay lawn as described by Bulet et al (Bulet, P., Dimarcq, J. L., Hetru, C., Lagueux, M., Charlet, M., Hegy, G., VanDorsselaer, A. and Hoffmann, J. A. 1993. J. Biol. Chem. 268, 14893-14897). Molecules of Phylloseptin I were dissolved in sterile distilled and deionized water and diluted 8-fold in TSB (OXIOD England) broth. Various concentrations of PSI solution were tested, being the highest 128 μg/ml. The initial inoculum was approximately 1×10^5 colony forming units (CFU)/ml and limit of detection was 10^2 CFU/ml. The final volume was 250 μl (25 μl of the peptide test in water, 25 μl of the inoculum in TSB, and 200 μl of TSB broth). The minimal inhibitory concentration (MIC) was measured for turbidity (OD at 595 nm) 20 h after all microorganisms were grown in stationary culture at 37° C. The lowest concentration of the peptide in which no growth occurred was defined as the MIC.
(§3) The minimal inhibitory concentrations (MICs) of the isolated Phylloseptin I against several Gram-positive and Gram-negative bacteria were determined as described by Park et al (Park, C. B., Kim, M. S., and Kim, S. C. 1996. 218 Biochem. Biophys. Res. Commun. 408-413.). […] That is, the minimal inhibitory concentration was defined as the peptide concentration which produces 100% of microorganism growth inhibition after 20 h incubation in culture media.

[2] = system: Escherichia coli ATTC 25922; conditions: 20 h, 37° C., TSB, 100% growth inhibition
Description: as §1, §2, §3

[3] = system: Staphylococcus aureus ATTC 25923; conditions: Staphilococcus aureus ATTC; 20 h, 37° C., TSB; 100% growth inhibition
Description: as §1, §2, §3

[4] = system: human red blood cells; experiment: Hemolysis assay
Description: Human erythrocytes (blood type O^−) from a healthy person were freshly prepared prior to each experiment. Hemolytic activity was assayed as described by Aboudy etal (Aboudy, Y., Mendelson, E., Shalit, I., Bessalle, R., Fridikin, M. 1994. Int. J. Peptide Protein Res. 43, 573-582.) with minor modifications. Three milliliters of freshly prepared erythrocytes (for methodology see Gibson, B. W., Tang, D., Mandrell, R., Kelly, M. and Spindel, E. R. 1991. J. Biol. Chem. 266, 23103-23111.21) was washed with isotonic phosphate-buffered saline (PBS), pH 7.4, until the color of the supernatant turned clear. The washed erythrocytes were then diluted to a final volume of 20 ml in the same buffer. Aliquots of cell suspentions (190 μl) containing samples (10 μl) were serially diluted in PBS, incubated at 37° C. for 30 min and then centrifuged at 4000×g for 5 min; 100 μl of supernatant was taken, diluted to 1.0 ml with PBS, and monitored at 567 nm. The relative optical density, as compared with that of the cell suspension treated with 0.2% Triton X-100, was defined as % hemolysis.
The hemolytic activity of Phylloseptin I and II was tested at different concentrations.

[5] = system: Pseudomonas aeruginosa wt; conditions: Pseudomonas aeruginosa wt (Brazilian strain); 20 h, 37° C., TSB; 100% growth inhibition
Description: as §1, §2, §3

[6] = system: Pseudomonas aeroginosa ATTC 27853; conditions: Pseudomonas aeruginosa ATTC; 20 h, 37° C., TSB; 100% growth inhibition
Description: as §1, §2, §3

Molecule	Minimal Inhibitory concentration [1]	Minimal Inhibitory concentration [2]	Minimal Inhibitory concentration [3]	Minimal Inhibitory concentration [5]	Minimal Inhibitory concentration [6]	other results
CC1(C)S[C@@H]2[C@H](NC(=O)[C@H](N)c3ccccc3)C(=O)N2[C@H]1C(=O)O [Amplicilyn]	128 µg/mL	64 µg/mL				
O=C(N[C@H](CO)[C@H](O)c1ccc([N+](=O)[O-])cc1)C(Cl)Cl [Chloranfenicol]	32 µg/mL	32 µg/mL	32 µg/mL			
CC[C@H](C)[C@H](NC(=O)[C@H](C)NC(=O)[C@H](CO)NC(=O)[C@@H](NC(=O)[C@H](C)NC(=O)[C@H](CC(N)=O)NC(=O)[C@@H](NC(=O)[C@H](C)NC(=O)[C@H](Cc1c[nH]cn1)NC(=O)[C@@H]1CCCN1C(=O)[C@@H](NC(=O)[C@H](CC(C)C)NC(=O)[C@H](CO)NC(=O)[C@H](CC(C)C)NC(=O)[C@@H](N)Cc1ccccc1)[C@@H](C)CC)[C@@H](C)CC)C(C)C)C(=O)N[C@@H](C)C(=O)N[C@@H](CCCCN)C(=O)N[C@@H](Cc1c[nH]cn1)C(=O)N[C@@H](CC(N)=O)C(=O)O [PS I, Phe Leu Ser Leu Ile Pro His Ala Ile Asn Ala Val Ser Ala Ile Ala Lys His Asn] (H-FLSLIPHAINAVSAIAKHN-OH)	8 µg/mL	16 µg/mL	16 µg/mL	6 µg/mL	8 µg/mL	% Hemolysis of human red blood cells ([4]; 1 μg/mL (0.496 μM), 37° C., 30 min, relative to 0.2% Triton X-100): 0.00%; % Hemolysis of human red blood cells ([4]; 2 μg/mL (0.990 μM), 37° C., 30 min, relative to 0.2% Triton X-100): 0.00%; % Hemolysis of human red blood cells ([4]; 4 μg/mL (1.980 μM), 37° C., 30 min, relative to 0.2% Triton X-100): 0.00%; % Hemolysis of human red blood cells ([4]; 8 μg/mL (3.968 μM), 37° C., 30 min, relative to 0.2% Triton X-100): 0.30%; % Hemolysis of human red blood cells ([4]; 16 μg/mL (7.937 μM), 37° C., 30 min, relative to 0.2% Triton X-100): 0.57%; % Hemolysis of human red blood cells ([4]; 32 μg/mL (15.873 μM), 37° C., 30 min, relative to 0.2% Triton X-100): 0.60%; % Hemolysis of human red blood cells ([4]; 64 μg/mL (31.746 μM), 37° C., 30 min, relative to 0.2% Triton X-100): 0.98%; % Hemolysis of human red blood cells ([4]; 128 μg/mL (63.492 μM), 37° C., 30 min, relative to 0.2% Triton X-100): 1.98%
CC[C@H](C)[C@H](NC(=O)[C@H](C)NC(=O)[C@H](Cc1c[nH]cn1)NC(=O)[C@@H]1CCCN1C(=O)[C@@H](NC(=O)[C@H](CC(C)C)NC(=O)[C@H](CO)NC(=O)[C@H](CC(C)C)NC(=O)[C@@H](N)Cc1ccccc1)[C@@H](C)CC)C(=O)N[C@@H](CC(N)=O)C(=O)N[C@@H](C)C(=O)N[C@H](C(=O)N[C@@H](CO)C(=O)N[C@H](C(=O)N[C@@H](CC(C)C)C(=O)N[C@H](C(=O)N[C@@H](Cc1c[nH]cn1)C(=O)N[C@@H](Cc1c[nH]cn1)C(=O)N[C@@H](Cc1ccccc1)C(=O)O)C(C)C)[C@@H](C)O)C(C)C [PS II, Phe Leu Ser Leu Ile Pro His Ala Ile Asn Ala Val Ser Thr Leu Val His His Phe] (H-FLSLIPHAINAVSTLVHHF-OH)						% Hemolysis of human red blood cells ([4]; red cells of human, 1 μg/mL): 0.00%; % Hemolysis of human red blood cells ([4]; red cells of human, 2 μg/mL): 0.00%; % Hemolysis of human red blood cells ([4]; red cells of human, 4 μg/mL): 0.10%; % Hemolysis of human red blood cells ([4]; red cells of human, 8 μg/mL): 0.28%; % Hemolysis of human red blood cells ([4]; red cells of human, 16 μg/mL): 0.70%; % Hemolysis of human red blood cells ([4]; red cells of human, 32 μg/mL): 0.80%; % Hemolysis of human red blood cells ([4]; red cells of human, 64 μg/mL): 1.05%; % Hemolysis of human red blood cells ([4]; red cells of human, 128 μg/mL): 2.05%
Gentamicyn		64 µg/mL		64 µg/mL	64 µg/mL	
Polimixyn B		64 µg/mL		16 µg/mL	16 µg/mL	
